# Results from ChEMBL document CHEMBL3421604, “Treating pain with somatostatin receptor subtype 4 agonists” (ACS Med Chem Lett, 2015).
# Target: Somatostatin receptor type 2 (Homo sapiens, UniProt P30874)
# Assay: Displacement of [3-125l-Tyr]-somatostatin-(1 -14) from human recombinant somatostatin 2 receptor expressed in CHO cell membranes incubated for 180 mins
# Sequence of Somatostatin receptor type 2 (P30874 whole entry): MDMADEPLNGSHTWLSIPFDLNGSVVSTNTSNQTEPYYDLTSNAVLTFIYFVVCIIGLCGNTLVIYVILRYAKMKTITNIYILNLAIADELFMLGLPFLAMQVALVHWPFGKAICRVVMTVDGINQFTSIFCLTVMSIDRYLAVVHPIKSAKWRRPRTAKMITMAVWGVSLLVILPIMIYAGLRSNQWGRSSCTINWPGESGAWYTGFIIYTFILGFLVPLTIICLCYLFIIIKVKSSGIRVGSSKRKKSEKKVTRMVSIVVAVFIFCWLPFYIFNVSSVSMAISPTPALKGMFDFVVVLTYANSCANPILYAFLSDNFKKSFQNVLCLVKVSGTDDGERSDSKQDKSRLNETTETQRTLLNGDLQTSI
row,SMILES,Ki [µM]
1,Cc1cc2ccccc2c(C(C)(C)NC(=O)[C@H]2[C@@H]3CNC[C@@H]32)n1,> 9.59
2,Cn1nc(C(C)(C)NC(=O)[C@H]2[C@@H]3CNC[C@@H]32)c2ccccc21,> 9.6
3,CC(C)(NC(=O)[C@H]1[C@@H]2CNC[C@@H]21)c1noc2c(F)cccc12,> 9.6
4,Cc1nc(C(C)(C)NC(=O)[C@H]2[C@@H]3CNC[C@@H]32)c2ccccc2n1,> 9.63

# Tested on: not listed separately
# Assay: Metabolic stability in pooled human liver microsomes assessed as half life at 0.1 uM at 37 degC in presence of NADPH by LC-MS/MS method
# Assay type: ADME
row,SMILES,half-life at 0.1 µM [h]
1,Cc1cc2ccccc2c(C(C)(C)NC(=O)[C@H]2[C@@H]3CNC[C@@H]32)n1,> 2.17
2,Cn1nc(C(C)(C)NC(=O)[C@H]2[C@@H]3CNC[C@@H]32)c2ccccc21,> 2.17
3,CC(C)(NC(=O)[C@H]1[C@@H]2CNC[C@@H]21)c1noc2c(F)cccc12,> 2.17
4,Cc1nc(C(C)(C)NC(=O)[C@H]2[C@@H]3CNC[C@@H]32)c2ccccc2n1,> 2.17

# Target: Somatostatin receptor type 5 (Homo sapiens, UniProt P35346)
# Sequence (P35346 whole entry): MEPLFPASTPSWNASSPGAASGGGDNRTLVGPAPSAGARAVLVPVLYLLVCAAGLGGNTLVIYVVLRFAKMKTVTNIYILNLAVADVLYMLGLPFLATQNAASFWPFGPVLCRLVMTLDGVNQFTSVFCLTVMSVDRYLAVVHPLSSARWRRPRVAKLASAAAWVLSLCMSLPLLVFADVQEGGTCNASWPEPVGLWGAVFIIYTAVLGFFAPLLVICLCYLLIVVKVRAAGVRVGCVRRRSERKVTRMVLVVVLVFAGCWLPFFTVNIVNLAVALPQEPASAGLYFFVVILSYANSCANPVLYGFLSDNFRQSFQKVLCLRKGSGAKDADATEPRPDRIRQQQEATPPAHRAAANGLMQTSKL
# Assay: Displacement of [3-125l-Tyr]-somatostatin-(1 -14) from human recombinant somatostatin 5 receptor expressed in CHO cell membranes incubated for 180 mins
row,SMILES,Ki [µM]
1,Cc1cc2ccccc2c(C(C)(C)NC(=O)[C@H]2[C@@H]3CNC[C@@H]32)n1,> 9.85
2,Cn1nc(C(C)(C)NC(=O)[C@H]2[C@@H]3CNC[C@@H]32)c2ccccc21,> 9.86
3,CC(C)(NC(=O)[C@H]1[C@@H]2CNC[C@@H]21)c1noc2c(F)cccc12,> 9.85
4,Cc1nc(C(C)(C)NC(=O)[C@H]2[C@@H]3CNC[C@@H]32)c2ccccc2n1,> 9.86

# Target: Somatostatin receptor type 3 (Homo sapiens, UniProt P32745)
# Sequence (P32745 whole entry): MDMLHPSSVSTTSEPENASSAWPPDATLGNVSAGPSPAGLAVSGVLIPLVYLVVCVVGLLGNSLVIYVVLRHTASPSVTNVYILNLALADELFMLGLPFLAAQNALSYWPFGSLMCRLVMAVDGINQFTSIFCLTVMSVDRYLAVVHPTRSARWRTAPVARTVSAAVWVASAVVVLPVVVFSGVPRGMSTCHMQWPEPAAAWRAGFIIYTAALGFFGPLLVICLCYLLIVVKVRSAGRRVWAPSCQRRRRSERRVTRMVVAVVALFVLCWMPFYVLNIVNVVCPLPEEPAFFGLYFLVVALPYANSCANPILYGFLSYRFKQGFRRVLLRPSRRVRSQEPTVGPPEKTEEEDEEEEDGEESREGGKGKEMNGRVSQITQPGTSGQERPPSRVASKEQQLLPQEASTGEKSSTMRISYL
# Assay: Displacement of [3-125l-Tyr]-somatostatin-(1 -14) from human recombinant somatostatin 3 receptor expressed in CHO cell membranes incubated for 180 mins
row,SMILES,Ki [µM]
1,Cn1nc(C(C)(C)NC(=O)[C@H]2[C@@H]3CNC[C@@H]32)c2ccccc21,> 8.62
2,CC(C)(NC(=O)[C@H]1[C@@H]2CNC[C@@H]21)c1noc2c(F)cccc12,> 8.6
3,Cc1nc(C(C)(C)NC(=O)[C@H]2[C@@H]3CNC[C@@H]32)c2ccccc2n1,> 8.71

# Target: Somatostatin receptor type 1 (Homo sapiens, UniProt P30872)
# Sequence (P30872 whole entry): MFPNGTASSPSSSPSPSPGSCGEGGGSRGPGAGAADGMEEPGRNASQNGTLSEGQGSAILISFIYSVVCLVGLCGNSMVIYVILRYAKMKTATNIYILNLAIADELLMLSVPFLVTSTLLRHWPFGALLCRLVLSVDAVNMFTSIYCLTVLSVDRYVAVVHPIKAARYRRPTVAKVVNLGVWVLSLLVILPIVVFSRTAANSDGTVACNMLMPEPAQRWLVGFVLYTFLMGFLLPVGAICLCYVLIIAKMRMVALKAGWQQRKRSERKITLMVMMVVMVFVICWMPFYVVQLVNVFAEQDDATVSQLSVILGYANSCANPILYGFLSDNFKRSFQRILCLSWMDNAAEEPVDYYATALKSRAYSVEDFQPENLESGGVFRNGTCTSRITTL
# Assay: Displacement of [3-125l-Tyr]-somatostatin-(1 -14) from human recombinant somatostatin 1 receptor expressed in CHO cell membranes incubated for 180 mins
row,SMILES,Ki [µM]
1,CC(C)(NC(=O)[C@H]1[C@@H]2CNC[C@@H]21)c1noc2c(F)cccc12,> 9.09
